PubChem BioAssay (NCI)
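Exposure lasted 48 hours, with cells grown in 96-well plates and compounds tested at five concentrations. Abbreviation: GI50, concentration required for 50% inhibition of growth. Definition used: TGI = concentration required for complete inhibition of growth.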

What was measured:
Assay in all cases: inhibition of tumour cell growth, NCI panel, 48 h
PC-3 prostate = system: PC-3 prostate
UO-31 renal = system: UO-31 renal
HS 578T breast = system: HS 578T breast
MDA-MB-435 = system: MDA-MB-435
MDA-MB-231 breast = system: MDA-MB-231 breast
OVCAR-3 ovarian = system: OVCAR-3 ovarian
CAKI-1 renal = system: CAKI-1 renal
K-562 leukemia = system: K-562 leukemia
U251 CNS = system: U251 CNS
M14 melanoma = system: M14 melanoma

| SMILES | GI50 (PC-3 prostate) [µM] | TGI (PC-3 prostate) [µM] | GI50 (UO-31 renal) [µM] | TGI (UO-31 renal) [µM] | GI50 (HS 578T breast) [µM] | TGI (HS 578T breast) [µM] | GI50 (MDA-MB-435) [µM] | TGI (MDA-MB-435) [µM] | GI50 (MDA-MB-231 breast) [µM] | TGI (MDA-MB-231 breast) [µM] | GI50 (OVCAR-3 ovarian) [µM] | TGI (OVCAR-3 ovarian) [µM] | GI50 (CAKI-1 renal) [µM] | TGI (CAKI-1 renal) [µM] | GI50 (K-562 leukemia) [µM] | TGI (K-562 leukemia) [µM] | GI50 (U251 CNS) [µM] | TGI (U251 CNS) [µM] | GI50 (M14 melanoma) [µM] | TGI (M14 melanoma) [µM] |
| --- | --- | --- | --- | --- | --- | --- | --- | --- | --- | --- | --- | --- | --- | --- | --- | --- | --- | --- | --- | --- |
| N#Cc1ccc(OCc2nc(N)nc(N)c2-c2ccc(Cl)c(Cl)c2)cc1 | 0.613 | > 100 | 3.79 | > 100 | 2.65 | 41.3 | 0.629 | > 100 | 4.4 | > 100 | 5.24 | 38.2 | 3.09 | > 100 | 0.359 | > 100 | 0.589 | > 100 | 0.741 | > 100 |
| COc1ccc(/C=C/C(=O)c2cc(OC)c(OC)c(OC)c2)cc1OCc1cn(Cc2ccc(F)cc2)nn1 | 2.66 | > 100 | 4 | 79.8 | 3.38 | > 100 | 2.78 | > 100 | 2.84 | > 100 | 3.41 | > 100 | 4.79 | > 100 | 3.6 | > 100 | 2.94 | 19.4 | 4.07 | > 100 |
| O=C(Oc1cccc(F)c1OC(=O)c1cccc(O)c1)c1cccc(O)c1 | 52.9 | > 100 | 5.56 | > 100 | > 100 | > 100 | 66.7 | > 100 | > 100 | > 100 | 4.82 | 45.7 | 7.47 | > 100 | 38 | > 100 | 17.8 | > 100 | 34.1 | > 100 |
